In patent publication US20220257635A1, “INJECTABLE NUTRITIONAL SUPPLEMENT” (CHEMVET AUSTRALIA PTY LTD, priority 2019, published 2022):

Assay: Stability storage of the Comparative Example 1 formulation at 5° C. and 40° C. (75% RH), vitamin B12 analysed
Assay type: physicochemical
Conditions: in formulation of Table 2; for Vitamin B12 T = 1 month (mg/mL) 5° C.: 1 month at 5° C.; for Vitamin B12 T = 1 month (mg/mL) 40° C.: 1 month at 40° C. (75% RH); for Vitamin B12 T = 0 (mg/mL) 5° C.: T = 0, 5° C. sample; for Vitamin B12 T = 0 (mg/mL) 40° C.: T = 0, 40° C. (75% RH) sample
Method: To the formulation of Table 1, water-soluble disodium Copper EDTA and disodium Zinc EDTA, were successfully added at the rate of 107 g/L and 285 g/L respectively and then topped up with water to the required volume.
This formulation was sent to Chemical Analysis, and analysed at 0 time and placed on stability storage at 5° C. and 40° C. (75% RH).

Substance | Vitamin B12 T = 1 month (mg/mL) 5° C. [mg/mL] | Vitamin B12 T = 1 month (mg/mL) 40° C. [mg/mL] | Vitamin B12 T = 0 (mg/mL) 5° C. [mg/mL] | Vitamin B12 T = 0 (mg/mL) 40° C. [mg/mL]
Hydroxocobalamin Acetate | 0.26 | 0.03 | 0.49 | 0.49
Cyanocobalamin | 0.23 | 0.14 | 0.24 | 0.24
